Measurements reported in US9040501B2, “Compositions and methods for treating cancer” (Eisai Inc., priority 2009, dated 2015).
Read-outs that look alike come from different tables or passages of the source. Marks after values point to notes of the source that are not given here. One block for each compound: values may come before it.

What was measured:
[1] = Stability in simulated gastric fluid at 37° C. (HPLC); format: physicochemical;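 for % ER-876400 (peak retention time: 1.46 min): percent of total sample signal attributed to the analyte peak at each sampling time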
Source text: […]. See Kararli, T. T. Comparison of the GI anatomy, physiology, and biochemistry of humans and commonly used laboratory animals. BioPharm & DrugDispos. 16:351-380, 1995, which is hereby wholly incorporated by reference. The gastric pH in fasted monkeys has been reported to have a similar range of 1-3. See Kondo, H. et al. Characteristics of the gastric pH profiles of unfed and fed cynomolgus monkeys as pharmaceutical product development subjects. BioPharm & DrugDispos. 24:45-51, 2003, which is hereby wholly incorporated by reference.
Materials: Simulated gastric fluid (SGF) was prepared by mixing the following into 100 mL of HPLC grade (or purified) water: 200 mg of sodium chloride and 1.87 mL of a 37.52% HCl stock solution.
The HPLC analyses were conducted using a Waters UPLC solvent delivery system with Corona CAD detection. The HPLC Column (Waters Atlantis HHS T3 2.1×100 mm, 1.8 um) was maintained at 40° C. and preequilibrated with a solution containing 98% water and 2% acetonitrile. The temperature controlled auto-sampler was maintained at 37° C. The flow rate for the Water/MeCN mobile phase was 0.65 mL/min, with a gradient following sample injection (5 μL) as follows: […]
The Water/MeCN mobile phase was applied to the column with the above described flow rate and gradient and the HPLC chromatograms were collected. After 3.5 minutes, the column was reequilibrated with 98% water/2% MeCN for 1.5 minutes.

[2] = Pharmacokinetics in mice after IV and PO administrations; format: in vivo, male BALB-c mice
Protocol: […]. All doses were prepared in phosphate buffered saline (PBS) and were administered at a volume of 5 mL/kg. Five mice per group were used in these studies. Blood samples were taken serially from the tail vein of each mouse at predetermined timepoints. Blood samples from all mice in each group were pooled together prior to processing for plasma. The pooled blood samples were spun down within 30-60 minutes after withdrawal and the plasma was harvested and frozen for assay. After preparation and extraction the samples were assayed by LC/MS/MS.

murine lymphoma L1210 [3] = conditions: for Mean Liver wts (g) ± SD / Mean Spleen wts (g) ± SD: on autopsy; for % ILS (Increased Life Span): vs vehicle group
Protocol: Preparation of L1210 Cells: L1210 ascitic cells were prepared by passaging them in mice at least three times as follows. Each CD2F1 female mouse was intraperitoneally (IP) injected with about 10^5 L1210 ascitic cells. After one week, the mouse was sacrificed (asphyxiation via CO2). The mouse was placed on its back, its belly surface was cleaned with alcohol wipes, and a small incision was made into the peritoneal cavity. […] Diluted ascites (diluted 1:10 again) were counted on a hematocytometer and the number of cells per mL was calculated. About 10^5 L1210 cells were used for a subsequent passage for another mouse passage. Or, a stock of L1210 ascites in BSA solution was diluted to 1×10^4 cells/0.1 ml for use in the study mice.
(§1) The mice were prepared with intravenous (IV) injection of L1210 ascites (prepared as described above) one day prior to commencing the dosing. […] The total IV injection for all mice took about 50 minutes.
Decitabine was prepared fresh twice a day, just prior to dosing. All solutions were stored on ice while dosing. Mice were dosed (intraperitoneally (IP) or per os (orally, PO)) twice a day (8 hours apart) for 4 consecutive days.
(§2) Dead mice were autopsied and observed for the presence of tumors in organs.
Preparation of study mice with IV injection of L1210 ascites took about 60 minutes. […] All solutions were stored on ice while dosing. Mice were dosed (IP or PO) twice a day (7 or 8 hours apart) for 4 consecutive days.

murine lymphoma L1210 [4] = conditions: for Mean Survival (days) ± SD: twice a day (8 hours apart), 4 days
Protocol: Or, a stock of L1210 ascites in BSA solution was diluted to 1×10^4 cells/0.1 ml for use in the study mice.
as §1
All solutions were stored on ice while dosing. Mice were dosed (intraperitoneally (IP) or per os (orally, PO)) twice a day (8 hours apart) for 4 consecutive days.
as §2

cytidine deaminase (CDA) = cytidine deaminase (CDA) (Homo sapiens (Human), UniProt P32320); assay: Effect of ER-876437 on the half-life of decitabine in the presence of CDA in Tris-HCl buffer at 37° C.; format: biochemical; conditions: for half-life at 0.2 mM: pH 7.4, Estimated T1/2 of decitabine
Protocol: The solvent delivery system employed an HPLC quaternary pump, low pressure mixing. An autosampler having a variable loop, 0.1 to 100 μL range and temperature controlled thermostat was used. […] Degassed HPLC grade water and degassed HPLC grade acetonitrile were used as solvents for the mobile phases. […] [table]

CDA = CDA (Homo sapiens (Human), UniProt P32320); conditions: deamination by CDA; Chabot et al. 1983, Bouffard et al. 1993; cited from earlier work
[5] = male, BALB-c, mouse, plasma, 10 mg/kg IV
[6] = male, BALB-c, mouse, plasma, 10 mg/kg IV, read-out: Plasma concentrations
[7] = male, BALB-c, mouse, plasma, 10 mg/kg PO, read-out: Plasma concentrations
[8] = Veh/decitabine 0.1 mg/kg PO (7 hours apart)
[9] = Veh/decitabine 0.1 mg/kg PO (8 hr.)
[10] = Veh/decitabine 0.1 mg/kg PO, on autopsy

cytidine deaminase (CDA), sequence (P32320 whole entry): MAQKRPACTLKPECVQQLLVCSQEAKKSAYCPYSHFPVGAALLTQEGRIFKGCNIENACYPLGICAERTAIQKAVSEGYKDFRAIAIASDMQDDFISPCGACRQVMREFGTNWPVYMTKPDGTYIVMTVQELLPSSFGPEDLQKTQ
CDA, sequence (P32320 whole entry): as above

% ER-876400 (peak retention time: 1.46 min) ([1]; SGF at 37° C., analysis time 0:00:30): 19.59%
% ER-876400 (peak retention time: 1.46 min) ([1]; SGF at 37° C., analysis time 0:06:08): 17.04%
% ER-876400 (peak retention time: 1.46 min) ([1]; SGF at 37° C., analysis time 0:11:45): 16.72%
% ER-876400 (peak retention time: 1.46 min) ([1]; SGF at 37° C., analysis time 0:17:23): 15.17%
% ER-876400 (peak retention time: 1.46 min) ([1]; SGF at 37° C., analysis time 0:23:01): 14.20%
% ER-876400 (peak retention time: 1.46 min) ([1]; SGF at 37° C., analysis time 0:28:38): 13.23%
% ER-876400 (peak retention time: 1.46 min) ([1]; SGF at 37° C., analysis time 0:34:16): 12.51%
% ER-876400 (peak retention time: 1.46 min) ([1]; SGF at 37° C., analysis time 0:39:54): 14.05%
% ER-876400 (peak retention time: 1.46 min) ([1]; SGF at 37° C., analysis time 0:45:33): 11.42%
% ER-876400 (peak retention time: 1.46 min) ([1]; SGF at 37° C., analysis time 0:51:10): 10.71%
% ER-876400 (peak retention time: 1.46 min) ([1]; SGF at 37° C., analysis time 0:56:48): 8.87%
% ER-876400 (peak retention time: 1.46 min) ([1]; SGF at 37° C., analysis time 1:02:27): 9.14%
% ER-876400 (peak retention time: 1.46 min) ([1]; SGF at 37° C., analysis time 1:08:07): 8.81%
% ER-876400 (peak retention time: 1.46 min) ([1]; SGF at 37° C., analysis time 1:13:46): 7.66%
% ER-876400 (peak retention time: 1.46 min) ([1]; SGF at 37° C., analysis time 1:19:23): 4.05%
% ER-876400 (peak retention time: 1.46 min) ([1]; SGF at 37° C., analysis time 1:25:01): 6.44%
% ER-876400 (peak retention time: 1.46 min) ([1]; SGF at 37° C., analysis time 1:30:38): 5.92%
% ER-876400 (peak retention time: 1.46 min) ([1]; SGF at 37° C., analysis time 1:36:16): 5.72%
% ER-876400 (peak retention time: 1.46 min) ([1]; SGF at 37° C., analysis time 1:41:53): 5.69%
% ER-876400 (peak retention time: 1.46 min) ([1]; SGF at 37° C., analysis time 1:47:32): 4.98%
% ER-876400 (peak retention time: 1.46 min) ([1]; SGF at 37° C., analysis time 1:53:10): 4.51%
% ER-876400 (peak retention time: 1.46 min) ([1]; SGF at 37° C., analysis time 1:58:49): 3.85%
% ER-876400 (peak retention time: 1.46 min) ([1]; SGF at 37° C., analysis time 2:04:28): 3.59%
% ER-876400 (peak retention time: 1.46 min) ([1]; SGF at 37° C., analysis time 2:21:24): 2.82%
% ER-876400 (peak retention time: 1.46 min) ([1]; SGF at 37° C., analysis time 2:49:37): 1.52%
% ER-876400 (peak retention time: 1.46 min) ([1]; SGF at 37° C., analysis time 3:17:48): 0.81%
% ER-876400 (peak retention time: 1.46 min) ([1]; SGF at 37° C., analysis time 3:23:28): 0.62%
% ER-876400 (peak retention time: 1.46 min) ([1]; SGF at 37° C., analysis time 3:46:00): 0.39%
% ER-876400 (peak retention time: 1.46 min) ([1]; SGF at 37° C., analysis time 3:51:38): 0.25%
% ER-876400 (peak retention time: 1.46 min) ([1]; analysis time 0:00:00, initial sample in water): 84.04%
time to degrade by 50% ([1]; simulated gastric fluid (pH 1.45) at 37° C.): less than 30 seconds
AUC0-∞ ([2]; 10 mg/kg IV): 20999 ng·h/mL
AUC0-∞/D ([2]; 10 mg/kg IV): 2100 ng · hr/mL/D
AUCExtrap ([2]; 10 mg/kg IV): 10.3%
CL ([2]; 10 mg/kg IV): 8 mL/min/kg
dose-normalized exposures (AUC0-∞) ([2]; 10 mg/kg IV): 2100 ng·h/mL per mg/kg
t1/2 ([2]; 10 mg/kg IV): 16.1 h
Plasma concentrations ([2]; 10 mg/kg IV, 2 hr): 1753 ^a ng/mL
AUC(0-t) ([2]; 10 mg/kg PO): 13160 ng·h/mL
AUC(0-inf) [2, 5]: 21000 ng·h/mL
clearance [2, 5]: 8 mL/min/kg
half-life [2, 5]: 16.1 h
concentration at 0.167 hr [2, 6]: 19900 ng/mL
concentration at 0.5 hr [2, 6]: 10200 ng/mL
concentration at 1 hr [2, 6]: 4210 ng/mL
concentration at 4 hr [2, 6]: 495 ng/mL
concentration at 6 hr [2, 6]: 118 ng/mL
concentration at 8 hr [2, 6]: 59 ng/mL
concentration at 24 hr [2, 6]: 93 ng/mL
AUC(0-t) ([2]; male, BALB-c, mouse, plasma, 10 mg/kg IV, read-out: AUC0-t): 18800 ng·h/mL
Vd ([2]; male, BALB-c, mouse, plasma, 10 mg/kg IV, read-out: Vss): 3.2 L/kg
Cmax ([2]; male, BALB-c, mouse, plasma, 10 mg/kg PO): 7860 ng/mL
bioavailability ([2]; male, BALB-c, mouse, plasma, 10 mg/kg PO vs IV, calculated based on AUC0-t, read-out: F (bioavailability)): 69.9%
concentration at 0.167 hr [2, 7]: 7100 ng/mL
concentration at 0.5 hr [2, 7]: 7860 ng/mL
concentration at 1 hr [2, 7]: 4660 ng/mL
concentration at 2 hr ([2]; male, BALB-c, mouse, plasma, 10 mg/kg PO, 2 hr, read-out: Plasma concentrations): 1750 ng/mL
concentration at 4 hr [2, 7]: 320 ng/mL
concentration at 6 hr [2, 7]: 87 ng/mL
concentration at 8 hr [2, 7]: 44 ng/mL
concentration at 24 hr [2, 7]: 264 ng/mL
AUC(0-t) ([2]; male, BALB-c, mouse, plasma, 10 mg/kg PO, read-out: AUC0-t): 13200 ng·h/mL
Compound: O=C1NCC=CCN1[C@@H]1O[C@H](CO)[C@@H](O)[C@H]1O [ER-876400, (Z)-3,4-dihydro-1-((2R,3R,4S,5R)-tetrahydro-3,4-dihydroxy-5-(hydroxymethyl)furan-2-yl)-1H-1,3-diazepin-2(7H)-one, reference compound]

Compound: Nc1ncn([C@H]2C[C@H](O)[C@@H](CO)O2)c(=O)n1 [decitabine, 5-aza-2′-deoxycytidine]
difference in survival when dosed 7 or 8 hours apart (murine lymphoma L1210 [3]; 0.1 mg/kg decitabine PO twice a day, 4 days): no difference in survival
Mean Survival (days) ± SD (murine lymphoma L1210 [3]; Veh/decitabine 0.1 mg/kg IP, twice a day (7 hours apart), 4 days): 13.6 ± 0.55 days
Mean Liver wts (g) ± SD (murine lymphoma L1210 [3]; [8]): 2.02 ± 0.31 g
Mean Spleen wts (g) ± SD (murine lymphoma L1210 [3]; [8]): 0.36 ± 0.11 g
% ILS (Increased Life Span) (murine lymphoma L1210 [3]; [8]): 47.50%
Mean Liver wts (g) ± SD (murine lymphoma L1210 [3]; [9]): 1.81 ± 0.41 g
Mean Spleen wts (g) ± SD (murine lymphoma L1210 [3]; [9]): 0.33 ± 0.06 g
Mean Survival (days) ± SD (murine lymphoma L1210 [3]; Veh/decitabine 0.1 mg/kg PO (8 hr.), twice a day (8 hours apart), 4 days): 11.6 ± 0.55 days
% ILS (Increased Life Span) (murine lymphoma L1210 [3]; [9]): 45.00%
Mean Survival (days) ± SD (murine lymphoma L1210 [3]; Veh/decitabine 0.1 mg/kg PO, twice a day (7 hours apart), 4 days): 11.8 ± 0.84 days
Mean Survival (days) ± SD (murine lymphoma L1210 [4]; Veh/decitabine 0.1 mg/kg IP): 13.4 ± 0.89 days
Mean Liver wts (g) ± SD (murine lymphoma L1210 [4]; [10]): 2.17 ± 0.1 g
Mean Spleen wts (g) ± SD (murine lymphoma L1210 [4]; [10]): 0.34 ± 0.04 g
Mean Survival (days) ± SD (murine lymphoma L1210 [4]; Veh/decitabine 0.1 mg/kg PO): 11.2 ± 0.45 days
% ILS (Increased Life Span) (murine lymphoma L1210 [4]; Veh/decitabine 0.1 mg/kg PO, vs vehicle group): 51.35%
Estimated T1/2 of decitabine (cytidine deaminase (CDA); Decitabine in Tris-HCl buffer at 37° C. (absence of CDA)): 9 h
Estimated T1/2 of decitabine (cytidine deaminase (CDA); Decitabine with CDA and ER-876437 in Tris-HCl buffer at 37° C.): 9 h
half-life at 0.2 mM (cytidine deaminase (CDA); Tris-HCl buffer, Decitabine in Tris-HCl buffer at 37° C. (absence of CDA)): 9 h
half-life at 0.2 mM (cytidine deaminase (CDA); cytidine deaminase (CDA) in Tris-HCl buffer, Decitabine with CDA and ER-876437 in Tris-HCl buffer at 37° C.): 9 h
half-life at 0.2 mM (cytidine deaminase (CDA); cytidine deaminase (CDA) in Tris-HCl buffer, Decitabine with CDA in Tris-HCl buffer at 37° C.): ~0.383 h

Compound: Nc1ccn([C@H]2C[C@H](O)[C@@H](CO)O2)c(=O)n1 [deoxycytidine]
Km (CDA): 19 ± 4 µM
